# Measured values taken from patent publication US5364615A (priority 1992, dated 1994).
# Several values for one entry are separate records, joined by “and”; a condition that tells them apart may be missing. Identical values can stand only once. Entries after “also recorded” stand apart in the source; their conditions may differ.
# System: Pneumocystis carinii
# Experiment: Randomized clinical trial of PCP prophylaxis (Example 8)
# Format: in vivo, human
# [1] = all strata, eligible, PCP within 60 days, 30 mg
# [2] = all strata, eligible, PCP within 60 days, 150 mg
# [3] = all strata, eligible, PCP within 60 days, 300 mg, p .004 (30 vs 300 mg)
# [4] = all strata, eligible, confirmed PCP within 60 days, 30 mg
# [5] = all strata, eligible, confirmed PCP within 60 days, 150 mg
# [6] = all strata, eligible, confirmed PCP within 60 days, 300 mg, p .0008 (30 vs 300 mg)
# [7] = all strata, intention to treat, all PCP, 30 mg
# [8] = all strata, intention to treat, all PCP, 150 mg
# [9] = all strata, intention to treat, all PCP, 300 mg, p .02 (30 vs 300 mg)
# [10] = prior PCP strata, eligible, PCP within 60 days, 30 mg
# [11] = prior PCP strata, eligible, PCP within 60 days, 150 mg
# [12] = prior PCP strata, eligible, PCP within 60 days, 300 mg, p .006 (30 vs 300 mg)
# [13] = prior PCP strata, eligible, confirmed PCP within 60 days, 30 mg
# [14] = prior PCP strata, eligible, confirmed PCP within 60 days, 150 mg
# [15] = prior PCP strata, eligible, confirmed PCP within 60 days, 300 mg, p .002 (30 vs 300 mg)
smiles,measurement,setting,value
"N=C(N)c1ccc(OCCCCCOc2ccc(C(=N)N)cc2)cc1 [pentamidine, p,p'-(pentamethylenedioxy)dibenzamidine]",Completed without Endpoint,30 mg every two weeks,26
same,"Died, Due to PCP",30 mg every two weeks,5
same,"Died, Not due to PCP",30 mg every two weeks,51
same,Extrapulmonary Pneumocystis,30 mg every two weeks,0
same,"PCP, Confirmed",30 mg every two weeks,32
same,"PCP, Unconfirmed",30 mg every two weeks,9
same,Completed without Endpoint,150 mg every two weeks,38
same,"Died, Due to PCP",150 mg every two weeks,6
same,"Died, Not due to PCP",150 mg every two weeks,47
same,Extrapulmonary Pneumocystis,150 mg every two weeks,1
same,"PCP, Confirmed",150 mg every two weeks,28
same,"PCP, Unconfirmed",150 mg every two weeks,4
same,Completed without Endpoint,300 mg every four weeks,42
same,"Died, Due to PCP",300 mg every four weeks,5
same,"Died, Not due to PCP",300 mg every four weeks,46
same,Extrapulmonary Pneumocystis,300 mg every four weeks,0
same,"PCP, Confirmed",300 mg every four weeks,16
same,"PCP, Unconfirmed",300 mg every four weeks,12
same,case fatality rate from first acute PCP episode,16 of 101 PCP episodes,15.8%
same,share of all deaths due to PCP,19 of 160,11.9%
same,all cause mortality between treatment arms,"30, 150, 300 mg",did not significantly differ between the three treatment arms
same,"time to PCP occurrence, dose comparison","Kaplan-Meier, 300 mg every 4 weeks vs 30 mg every 2 weeks, 150 mg vs 30 mg",300 mg of aerosolized pentamidine given every 4 weeks was consistently superior to 30 mg of aerosolized pentamidine given every 2 weeks and The 150 mg arm was superior to the 30 mg arm but less so than the 300 mg arm
same,all cause mortality,Kaposi's sarcoma stratum,36%
same,deaths due to PCP,all doses,Nineteen deaths occurred due to PCP
same,deaths,"all doses, 408 participants",160
same,PCP episodes,"all doses, KS stratum",8
same,PCP episodes,"all doses, Other HIV stratum",15
same,PCP episodes,"all doses, total and prior PCP stratum",One hundred-one PCP episodes; also recorded: Seventy-eight occurred in the prior PCP stratum
same,Relative Hazard of PCP: Cox regression,"all strata, confirmed PCP on study drug, 30 vs 300",3.9 and 3.86
same,Relative Hazard of PCP: Cox regression,"all strata, confirmed PCP on study drug, 30 vs. 150",1.7 and 1.71
same,No PCP (participants),[1],89
same,PCP (participants),[1],28
same,No PCP (participants),[2],102
same,PCP (participants),[2],18
same,No PCP (participants),[3],113
same,PCP (participants),[3],16
same,No PCP (participants),[4],95
same,PCP (participants),[4],22
same,No PCP (participants),[5],104
same,PCP (participants),[5],16
same,No PCP (participants),[6],121
same,PCP (participants),[6],8
same,No PCP (participants),[7],94
same,PCP (participants),[7],41
same,No PCP (participants),[8],102
same,PCP (participants),[8],32
same,No PCP (participants),[9],111
same,PCP (participants),[9],28
same,Relative Hazard of PCP: Cox regression,"all strata, intention to treat, 30 vs 300",1.78
same,Relative Hazard of PCP: Cox regression,"all strata, intention to treat, 30 vs. 150",1.21
same,developed PCP,"initial CD4 counts greater than 200, no prior PCP, two of 39",5.1%
same,developed PCP,"initial CD4 counts less than 200, no prior PCP, 12 of 89",13%
same,all cause mortality,other HIV stratum,13%
same,Relative Hazard of PCP: Cox regression,"prior PCP strata, confirmed PCP on study drug, 30 vs 300",4.57
same,Relative Hazard of PCP: Cox regression,"prior PCP strata, confirmed PCP on study drug, 30 vs. 150",2.10
same,No PCP (participants),[10],42
same,PCP (participants),[10],25
same,No PCP (participants),[11],51
same,PCP (participants),[11],16
same,No PCP (participants),[12],60
same,PCP (participants),[12],14
same,No PCP (participants),[13],47
same,PCP (participants),[13],20
same,No PCP (participants),[14],53
same,PCP (participants),[14],14
same,No PCP (participants),[15],66
same,PCP (participants),[15],8
same,No PCP (participants),"prior PCP strata, intention to treat, all PCP, 30 mg",46
